# Source: patent US7022699B2, “Cyclohexenyl phenyl diazepines vasopressin and oxytocin receptor modulators” (Wyeth, priority 2001, dated 2006)
# Assays:
# [1] = molecular target: T1, human vasopressin V1a receptor subtype (Homo sapiens, UniProt P37288); assay: Vasopressin binding in CHO cell membranes expressing human vasopressin V1a subtype receptors ([3H]Manning ligand); settings: for inhibition at 0.1 µM / V1a % inhibition @ 100 nM: 100 nM, values without parentheses; for IC50: values in parentheses
# T1 construct: host or cells: CHO cells, stably transfected (pZeoSV vector for the Thibonnier cells); membranes
# Excerpt: Vasopressin Binding in Chinese Hamster Ovary Cell Membranes Expressing Human Vasopressin V1a Subtype Receptors
# Chinese hamster ovary cells (CHO cells) stably transfected with the human vasopressin V1a subtype receptors were either obtained from Biosignal Inc., 1744 rue Williams, Montreal, Quebec, Canada or obtained from M. Thibonnier, Case Western Reserve University School of Medicine, Cleveland, Ohio. A. Passaging and Amplification of Cells: CHO cells transfected with the human vasopressin V1a subtype receptors obtained from M. Thibonnier (pZeoSV vector) are allowed to grow to confluency (approx. >90%) in T-150 flasks under sterile conditions, in a cell culture medium of F-12 Nutrient Mixture (HAM) with L-glutamine (Gibco Cat. #11765-054) containing 15 mM HEPES (Gibco Cat. #15630-080), 1% antibiotic/antimycotic (add 5 mL 100×, Gibco Cat. #15240-062 per 500 mL F-12), 250 μg/mL Zeocin (add 1.25 mL of 100 mg/mL Invitrogen R-250-01 per 500 mL F-12) and 10% Fetal Bovine Serum (Qualified, heat inactivated, Gibco Cat. #16140-063). The medium is removed by aspiration and the cells are washed with 10 mL of Hank's Balanced Salt solution (Gibco Cat. #14175-095). The salt solution is removed by aspiration and the cells are trypsinized with 5 mL of trypsin-EDTA (0.05% trypsin, 0.53 mM EDTA-4Na, Gibco Cat. #25300-070) for 1 min. The trypsin is removed by aspiration and the cells dislodged by tapping. Cell Culture medium (eg, 30 mL for 1:30 split) is immediately added and mixed well to inactivate trypsin. 1 mL of detached cells is added to new culture flasks containing fresh cell culture medium (eg, into 25 mL per T-150 flask), and mixed gently. The cells are incubated at 37° C. in 5% CO2. The medium is changed at 3 to 4 days interval (or as appropriate). The cells grow to confluency (approx. >75%–95%) within 7–8 days. All steps are done under sterile conditions. B. Membrane Preparation: The cells are washed twice gently with Hank's Balanced Salt solution (e.g.,. use 10 mL per T-150 flask). The excess is removed and the cells are bathed for 15–30 min. in an enzyme-free Cell Dissociation Buffer (e.g. use 8 mL Hank's Based, Gibco Cat. #13150-016 per T-150 flask) until the cells are loosened. The contents are transferred to centrifuge tubes (50 mL size) kept in ice bath. All subsequent steps are done at 4° C. The tubes are centrifuged at 300×g for 15 min (1380 rpm on SORVAL, Model RT6000D, using rotor for 50 mL tubes). The supernatant is discarded and the cells suspended in homogeneizing buffer (10 mM Tris-HCl containing 0.25 M sucrose and 1 mM EDTA, pH 7.4) ensuring that the volume of the buffer is about ten times the volume of the cell pellet. The cells are pooled into a centrifuge tube (50 mL) and homogenized with Polytron at setting 6 for 10 sec. The homogenate is transferred into a Potter-Elvjehm homogenizer and homogenized with 3 strokes. The homogenate is centrifuged at 1500×g for 10 min at 4° C. (3100 rpm using SORVAL, model RT6000D, using rotor for 50 mL tubes). The pellet is discarded. The supernatant is centrifuged at 100,000×g for 60 min. at 4° C. (Beckman L8-80M ultracentrifuge; spin at 37,500 rpm with rotor type 70 Ti for 50 mL tubes; 38,000 rpm with type 80Ti for 15 mL tubes; or 35,800 rpm with rotor type 45Ti). The supernantant is discarded and the pellet suspended in 3 to 4 mL of Tris buffer (50 mM TRIS-HCl, pH 7.4). The protein content is estimated by the Bradford or Lowry method. The volume of the membrane suspension is adjusted with the membrane buffer (50 mM Tris-HCl containing 0.1% BSA and 0.1 mM PMSF) to give 3.0 mg/mL (or as appropriate) of protein. The membranes are aliquoted and stored at −70° C. C. […]
# T1 sequence (P37288 whole entry): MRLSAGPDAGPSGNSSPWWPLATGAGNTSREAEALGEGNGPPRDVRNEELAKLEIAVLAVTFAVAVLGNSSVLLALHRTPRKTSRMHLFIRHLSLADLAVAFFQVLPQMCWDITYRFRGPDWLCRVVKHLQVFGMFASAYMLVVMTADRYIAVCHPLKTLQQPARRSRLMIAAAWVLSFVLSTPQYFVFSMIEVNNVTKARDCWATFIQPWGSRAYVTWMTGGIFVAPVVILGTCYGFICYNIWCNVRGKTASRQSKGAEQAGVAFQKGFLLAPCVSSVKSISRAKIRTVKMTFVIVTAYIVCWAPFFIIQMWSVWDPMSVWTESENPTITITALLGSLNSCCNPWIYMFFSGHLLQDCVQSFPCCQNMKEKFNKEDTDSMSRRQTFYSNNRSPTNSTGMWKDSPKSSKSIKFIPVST
Compound,inhibition at 0.1 µM [1] [%],melting point [°C],also measured
"CC1=C(c2ccc(C(=O)N3Cc4cccn4Cc4ccccc43)cc2C)CCCC1O (racemic) [Example 5, (10,11-Dihydro-5H-pyrrolo[2,1-c][1,4]benzodiazepin-10-yl)-[4-(3-hydroxy-2-methyl-cyclohex-1-en-1-yl)-3-methyl-phenyl]-methanone]",0,,
"CC1=C(c2ccc(C(=O)N3Cc4cccn4Cc4ccccc43)cc2C)CCC[C@@H]1O (single isomer, unassigned) [Example 43]",93,,
"Cc1cc(C(=O)N2Cc3cccn3Cc3ccccc32)ccc1C1=CCCCC1 [Example 2, (10,11-Dihydro-5H-pyrrolo[2,1-c][1,4]benzodiazepin-10-yl)-(4-cyclohex-1-en-1-yl-3-methyl-phenyl)-methanone]",74,182 to 183,
"Cc1cc(C(=O)N2Cc3cccn3Cc3ccccc32)ccc1C1=CCCc2ccccc21 [Example 3, (10,11-Dihydro-5H-pyrrolo[2,1-c][1,4]benzodiazepin-10-yl)-[4-(3,4-dihydro-naphthalen-1-yl)-3-methyl-phenyl]-methanone]",,108,IC50 [1]: 432 nM
"CC1=C(c2ccc(C(=O)N3Cc4cccn4Cc4ccccc43)cc2)CCCC1 [Example 7, (10,11-Dihydro-5H-pyrrolo[2,1-c][1,4]benzodiazepin-10-yl)-[4-(2-methyl-cyclohex-1-en-1-yl)-phenyl]-methanone]",,119 to 120,IC50 [1]: 45.7 nM
"COc1cc(C2=CCCc3ccccc32)c(Cl)cc1C(=O)N1Cc2cccn2Cc2ccccc21 [Example 8, 10-[5-Chloro-4-(3,4-dihydro-naphthalen-1-yl)-2-methoxybenzoyl]-10,11-dihydro-5H-pyrrolo[2,1-c][1,4]benzodiazepine]",-9,209 to 210,
"COc1cc(C2=C(C)C(=O)CCC2)c(Cl)cc1C(=O)N1Cc2cccn2Cc2ccccc21 [Example 9, 3-[2-Chloro-5-methoxy-4-(5H-pyrrolo[2,1-c][1,4]benzodiazepin-10(11H)-yl-carbonyl)phenyl]-2-methyl-cyclohex-2-en-1-one]",17,,
"O=C(c1ccc(C2=CCCc3ccccc32)cc1Cl)N1Cc2cccn2Cc2ccccc21 [Example 11, (10,11-Dihydro-5H-pyrrolo[2,1-c][1,4]benzodiazepin-10-yl)-[2-chloro-4-(3,4-dihydro-naphthalen-1-yl)-phenyl]-methanone]",6,174 to 176,
"CC1(C)CCCC=C1c1ccc(C(=O)N2Cc3cccn3Cc3ccccc32)c(Cl)c1 [Example 12, (10,11-Dihydro-5H-pyrrolo[2,1-c][1,4]benzodiazepin-10-yl)-[2-chloro-4-(6,6-dimethyl-cyclohex-1-en-1-yl)-phenyl]-methanone]",54,,
"CC1=C(c2ccc(C(=O)N3Cc4cccn4Cc4ccccc43)c(Cl)c2)CCCC1=O [Example 13, (10,11-Dihydro-5H-pyrrolo[2,1-c][1,4]benzodiazepin-10-yl)-[2-chloro-4-(2-methyl-3-oxo-cyclohex-1-en-1-yl)-phenyl]-methanone]",95,,
"CC1=C(c2ccc(C(=O)N3Cc4cccn4Cc4ccccc43)c(Cl)c2)CCCC1O (stereo not shown) [Example 14, (10,11-Dihydro-5H-pyrrolo[2,1-c][1,4]benzodiazepin-10-yl)-[2-chloro-4-(3-hydroxy-2-methyl-cyclohex-1-en-1-yl)-phenyl]-methanone]",10,,
"O=C(c1ccc(C2=CCCCC2)cc1)N1Cc2cccn2Cc2ccccc21 [Example 15, (10,11-Dihydro-5H-pyrrolo[2,1-c][1,4]benzodiazepin-10-yl)-(4-cyclohex-1-en-1-yl-phenyl)-methanone]",,156,IC50 [1]: 35.3 nM
"CC1CCCC=C1c1ccc(C(=O)N2Cc3cccn3Cc3ccccc32)cc1 (stereo not shown) [Example 16, (10,11-Dihydro-5H-pyrrolo[2,1-c][1,4]benzodiazepin-10-yl)-[4-(6-methyl-cyclohex-1-en-1-yl)-phenyl]-methanone]",,108 to 109,IC50 [1]: 77.8 nM
"CC1(C)CCCC=C1c1ccc(C(=O)N2Cc3cccn3Cc3ccccc32)cc1 [Example 17, (10,11-Dihydro-5H-pyrrolo[2,1-c][1,4]benzodiazepin-10-yl)-[4-(6,6-dimethyl-cyclohex-1-en-1-yl)-phenyl]-methanone]",51,118,
"CC(C)(C)C1CCCC=C1c1ccc(C(=O)N2Cc3cccn3Cc3ccccc32)cc1 (stereo not shown) [Example 20, (10,11-5H-Dihydro-pyrrolo[2,1-c][1,4]benzodiazepin-10-yl)-[4-(6-tert-butyl-cyclohex-1-en-1-yl)-phenyl]-methanone]",,,V1a % inhibition @ 100 nM [1]: 4%
O=C(c1ccc(C2=CCC3CCC2C3)cc1)N1Cc2cccn2Cc2ccccc21 (stereo not shown) [Example 21],,,V1a % inhibition @ 100 nM [1]: 37%

# Continued, in another order:
inhibition at 0.1 µM [1] [%],melting point [°C],Compound,also measured
36,,"CC1=C(c2ccc(C(=O)N3Cc4cccn4Cc4ccccc43)cc2C)CCC[C@H]1O (single isomer, unassigned) [Example 41]",
,92 to 98,"COc1cc(C2=CCCCC2)c(Cl)cc1C(=O)N1Cc2cccn2Cc2ccccc21 [Example 1, 10-(5-Chloro-4-cyclohex-1-en-1-yl-2-methoxybenzoyl)-10,11-dihydro-5H-pyrrolo[2,1-c][1,4]benzodiazepine]",IC50 [1]: 232 nM
7,,"CC1=C(c2ccc(C(=O)N3Cc4cccn4Cc4ccccc43)cc2C)CCCC1=O [Example 4, 3-[2-Methyl-4-(5H-pyrrolo[2,1-c][1,4]benzodiazepin-10(11H)-yl-carbonyl)phenyl]-2-methyl-cyclohex-2-en-1-one]",
45,,"CC1=C(c2ccc(C(=O)N3Cc4cccn4Cc4ccccc43)cc2C)CCC[C@H]1O [Example 6, (10,11-Dihydro-5H-pyrrolo[2,1-c][1,4]benzodiazepin-10-yl)-[4-((3R)-3-hydroxy-2-methyl-cyclohex-1-en-1-yl)-3-methyl-phenyl]-methanone]",
94,,"O=C(c1ccc(C2=CCCCC2)cc1Cl)N1Cc2cccn2Cc2ccccc21 [Example 10, (10,11-dihydro-5H-pyrrolo[2,1-c][1,4]benzodiazepin-10-yl)-[2-chloro-4-(cyclohex-1-en1-yl)-phenyl]-methanone]",
76,,"O=C(c1ccc(C2=CC(O)CCC2)cc1)N1Cc2cccn2Cc2ccccc21 (stereo not shown) [Example 25, (10,11-Dihydro-5H-pyrrolo[2,1-c][1,4]benzodiazepin-10-yl)-[4-(3-hydroxy-cyclohex-1-en-1-yl)-phenyl]-methanone]",
89,,"CC1=C(c2ccc(C(=O)N3Cc4cccn4Cc4ccccc43)cc2)CCCC1O (stereo not shown) [Example 27, (10,11-Dihydro-5H-pyrrolo[2,1-c][1,4]benzodiazepin-10-yl)-[4-(3-hydroxy-2-methyl-cyclohex-1-en-1-yl)-phenyl]-methanone]",
91,,"Cc1cc(C(=O)N2Cc3cccn3Cc3ccccc32)ccc1C1=CC(O)CCC1 (stereo not shown) [Example 40, (10,11-Dihydro-5H-pyrrolo[2,1-c][1,4]benzodiazepin-10-yl)-[4-(3-hydroxy-cyclohex-1-en-1-yl)-3-methyl-phenyl]-methanone]",
50,,"CC1=C(c2ccc(C(=O)N3Cc4cccn4Cc4ccccc43)cc2C)CCCC1N (stereo not shown) [Example 45, [4-(3-Amino-2-methyl-cyclohex-1-en-1-yl)-3-methyl-phenyl]-(10,11-dihydro-5H-pyrrolo[2,1-c][1,4]benzodiazepin-10-yl)-methanone]",
